From patent US10000534B2, “Peptide having osteoblast proliferation activity and periodontal ligament fibroblast proliferation activity, and use of same” (CAREGEN CO., LTD., priority 2014, dated 2018)
Ends that are not written are not given here.

What was measured:
C2C12 cells = test: MTT assay of cell proliferation in C2C12 cells; type: cell-based; settings: peptide 10 μg/ml, 72 hours, serum-free, FIGS. 1a and 1b
Procedure: In order to analyze the BMP2-like action of the sequence peptides synthesized in synthesis example 1, MTT assay was conducted using C2C12 cells, which are a myoblast cell line, to investigate the proliferation promoting effect.
The C2C12 cells were cultured in Dulbecco's modified Eagle's medium (DMEM, Gibco) supplemented with 10% fetal bovine serum (FBS, Sigma) using a 500 ml-flask for tissue culture. The cultured cell lines were carefully detached from the bottom of the culture container using a 1% trypsin solution, followed by centrifugation, thereby obtaining only cell precipitates. The cell precipitates were re-suspended in DMEM culture medium supplemented without FBS, and then added to a 96-well plate for tissue culture at 1×10^3 cells per each well, followed by culture under conditions of 37° C. and 5% CO2 for 24 hours. After 24 hours, the medium was changed with the same culture liquid completely excluding serum, and then the blank sample and each of the synthetic peptide were dissolved sterile in distilled water, and the mixture was cultured at a concentration of 10 μg/ml for 72 hours under the same conditions. The MTT sample was added to the culture-completed well, and after 4 hour, the formed formazan was dissolved in DMSO, and then the absorbance was measured at 560 nm to determine cell proliferation.

MC3T3-E1 cells [1] = test: Alkaline phosphatase (ALP) staining of MC3T3-E1 cells (osteoblast differentiation); type: cell-based; settings: MC3T3-E1, peptide 10 ug/ml and 50 ug/ml, 13 days; FIGS. 2a and 2b
Procedure: In order to analyze the BMP2-like action of the sequence peptides synthesized in synthesis example 1, the osteoblast differentiation promoting effect was investigated through alkaline phosphatase (ALP) staining of MC3T3-E1 cells, which are a pre-osteoblast cell line. The MC3T3-E1 cells were placed in a 24-well plate to 3×10^4 cells, and then cultured for 24 hours under conditions of 37° C. and 5% CO2. After 24 hours, the alpha-MEM medium containing 10% FBS and 50 ug/ml ascorbic acid+100 mM b-glycerophosphate was treated with the synthetic peptides at concentrations of 10 ug/ml and 50 ug/ml, and then the culture was conducted for 13 days while the medium was exchanged every three days. The culture-completed plate well was washed two times with PBS, and then the cells were immobilized with an immobilization buffer, in which acetone, 37% formaldehyde, and citric acid solution were mixed, for 30 seconds. The following staining was carried out using the leukocyte alkaline phosphatase staining kit (SIGMA).
The cells were treated for 2 minutes with an FBB-alkaline solution and a sodium nitrite solution mixed at 1:1, and then treated with a buffer composed of distilled water and naphthol AS-BI alkaline solution, followed by color development in an incubator at 37° C. for 1 hour.

MC3T3-E1 cells [2] = test: RT-PCR of osteogenic differentiation-related genes (BSP, COL1A1) in MC3T3-E1 cells; type: cell-based; settings: MC3T3-E1, peptide 10 ug/ml and 50 ug/ml, 2 days; FIGS. 3a and 3b
Procedure: In order to investigate the mRNA expression levels of osteogenic differentiation-related genes, bone sialoprotein (BSP) and collagen type I alpha 1 (COL1A1) by the sequence peptides synthesized in synthesis example 1, MC3T3-E1 cells were placed in a 6-well plate to 2×10^5 cells, and then cultured for 24 hours under conditions of 37° C. and 5% CO2. After 24 hours, the medium containing FBS 10% was treated with the respective peptides at 10 ug/ml and 50 ug/ml, and BMP2 used at a positive control at 100 ng/ml. After 2 days, the washing was conducted with PBS, and then RNA was isolated using Easy blue (Intron). cDNA was synthesized using 1 ug of RNA and RT premixture (Intron), and PCR was conducted using PCR premixture (Bioneer), and then the resulting product was loaded on agarose gel to investigate the mRNA expression degree of each gene.

MC3T3-E1 cells [3] = test: Western blotting of pSmad1/5/8 in MC3T3-E1 cells; type: cell-based; settings: MC3T3-E1, peptide 10 ug/ml, 15 and 30 minutes, FIGS. 4a and 4b
Procedure: In order to investigate whether pSmad1/5/8, which is a signal involved in the promotion of osteogenic differentiation, was activated by the present peptides, MC3T3-E1 cells were placed in a 6-well plate at 2×10^5 cells, and then cultured for 24 hours under the conditions of 37° C. and 5% CO2. After 24 hours, the medium was exchanged with a medium without serum, followed by culture for 24 hours. Then, the resulting product was treated with the respective peptides at 10 ug/ml, and BMP2 used at a positive control at 50 ng/ml. After 15 minutes and 30 minutes, the washing was conducted with PBS, and then a lysis buffer was added to obtain proteins through lysis, followed by western blotting.

[4] = tested on: human periodontal ligament fibroblasts; test: SRB assay of human periodontal ligament fibroblast growth; type: cell-based; settings: peptide 0.05-10 ug/ml, 72 hours, serum-free; FIGS. 6a and 6b
Procedure: In order to investigate the effects of the peptides of SEQ ID NO: 1 and SEQ ID NO: 2 on the periodontium, the human periodontal ligament fibroblast promoting effects were analyzed. The periodontal ligament fibroblasts were placed in a 48-well plate to 1×10^3 cells, and then cultured for 24 hours under conditions of 37° C. and 5% CO2. After 24 hours, the exchange with the medium not containing serum was conducted, followed by culture for 6 hours. Thereafter, the resulting product was treated with the peptides at concentrations of 0.05-10 ug/ml and BMP-2 and IGF-1 used as positive controls at a concentration of 0.2 ug/ml, followed by culture for 72 hours. After the completion of the culture, the culture supernatant was removed and the cells were immobilized using ethanol. After the cell immobilization was ended, the cells were washed three times with phosphate buffer saline (PBS). After the wash solution was removed, the cells were treated with colorimetric SRB solution, and sufficiently washed with 1% acetic acid. Then, the cells were observed using a microscope to observe the conditions of living cells. The absorbance for the solution decolorized with 20 mM tris was read at UV light of 560 nm, thereby measuring the survival conditions of cells.

[5] = tested on: human periodontal ligament fibroblasts; test: Western blotting of p-PI3K and p-Akt in periodontal ligament fibroblasts; type: cell-based; settings: peptide 10 ug/ml, 5-15 minutes, FIGS. 7a and 7b
Procedure: In order to investigate the human periodontal ligament fibroblast growth promoting effects by the peptides of SEQ ID NO: 1 and SEQ ID NO: 2, the phosphorylation degrees of related signaling molecules were analyzed using western blotting. The periodontal ligament fibroblasts were placed in a 6-well plate to 5×10^5 cells, and then cultured for 24 hours under conditions of 37° C. and 5% CO2. Thereafter, the resulting product was treated with the peptides at a concentration of 10 ug/ml and bFGF used as a positive control at a concentration of 0.2 ug/ml. Then, the cells were collected by culture times of 5-15 minutes, and the total proteins were isolated, and then western blotting was conducted with respect to p-PI3K and p-Akt.

[6] = tested on: periodontal ligament fibroblasts; test: RT-PCR of COL1A1 and DSPP mRNA in periodontal ligament fibroblasts; type: cell-based, human; settings: peptide 1 and 10 ug/ml, 72 hours, FIGS. 8a and 8b
Procedure: In order to investigate the periodontal ligament fibroblast activity promoting effects by the peptides of SEQ ID NO: 1 and SEQ ID NO: 2, the mRNA expression of related genes was analyzed using RT-PCR. The periodontal ligament fibroblasts were placed in a 24-well plate to 1.5×10^4 cells, and then cultured for 24 hours under conditions of 37° C. and 5% CO2. After 24 hours, the exchange with the medium not containing serum was conducted, followed by culture for 24 hours. Thereafter, the resulting product was treated with the peptides at concentrations of 1 and 10 ug/ml and BMP-2 and IGF-1 used as positive controls at a concentration of 0.2 ug/ml, followed by culture for 72 hours. After the completion of the culture, the washing was conducted with PBS, and then RNA was isolated using Easy blue (Intron). cDNA was synthesized using 1 ug of RNA and RT premixture (Intron), and PCR was conducted using PCR premixture (Bioneer), and then the resulting product was loaded on agarose gel to investigate the mRNA level of each marker.

Balb/c mouse = test: Collagen sponge transplant in Balb/c mouse, H&E staining of osteocytes permeation and differentiation; type: in vivo; settings: collagen sponge with 100 ug peptide transplanted into the back, 2 weeks, FIG. 5
Procedure: A collagen sponge with a size of 0.5 mm×0.5 mm was wetted with 100 ug of the peptide of SEQ ID NO: 1, transplanted into the back of the Balb/c mouse, and then left for 2 weeks. Thereafter, the collagen sponge was extracted, and then made into a paraffin block, and then the degree of osteocytes permeation and differentiation in the collagen sponge were measured through H&E staining (FIG. 5).

Row | Sequence | growth of osteoblasts (cell proliferation, MTT, absorbance at 560 nm) (C2C12 cells) | ALP expression (ALP staining) (MC3T3-E1 cells [1]) | mRNA expression levels of osteogenic differentiation genes (BSP, COL1A1) (MC3T3-E1 cells [2]) | phosphorylation of Smad1/5/8 (MC3T3-E1 cells [3]) | periodontal ligament fibroblast cell growth (SRB, absorbance 560 nm) [4] | phosphorylation level of Akt [5] | phosphorylation level of PI3K [5] | mRNA expression level of alpha-1 type I collagen (COL1A1) [6] | mRNA expression level of dentin sialophosphoprotein (DSPP) [6] | bone formation promoting effect (osteocytes permeation, proliferation and differentiation in collagen sponge, H&E) (Balb/c mouse)
1 | FDMGAYKSSK [SEQ ID NO: 2] | significantly promoted the growth of osteoblasts | increase in the ALP expression | increases in the mRNA expression levels | promotion of the phosphorylation of Smad1/5/8 | cell growth increase in a dose-dependent manner | increases in the phosphorylation levels | increases in the phosphorylation levels | increases in the mRNA expression levels | increases in the mRNA expression levels | –
2 | RSLNLRDSQKS [SEQ ID NO: 1] | significantly promoted the growth of osteoblasts | increase in the ALP expression | increases in the mRNA expression levels | promotion of the phosphorylation of Smad1/5/8 | cell growth increase in a dose-dependent manner | increases in the phosphorylation levels | increases in the phosphorylation levels | increases in the mRNA expression levels | increases in the mRNA expression levels | bone formation promoting effect
